The text below walks through data of patent US12221432B2, “Estrogen receptor antagonist” (CHIA TAI TIANQING PHARMACEUTICAL GROUP CO., LTD., priority 2018, dated 2025).

Counter-ions that a name gives are not always drawn.

Series [1] concerns the target T1, CYP1A2 (Homo sapiens, UniProt P05177).
T1 construct: tissue Corning Co., Ltd; host or cells: human liver microsomes
T1 sequence (P05177 1-516): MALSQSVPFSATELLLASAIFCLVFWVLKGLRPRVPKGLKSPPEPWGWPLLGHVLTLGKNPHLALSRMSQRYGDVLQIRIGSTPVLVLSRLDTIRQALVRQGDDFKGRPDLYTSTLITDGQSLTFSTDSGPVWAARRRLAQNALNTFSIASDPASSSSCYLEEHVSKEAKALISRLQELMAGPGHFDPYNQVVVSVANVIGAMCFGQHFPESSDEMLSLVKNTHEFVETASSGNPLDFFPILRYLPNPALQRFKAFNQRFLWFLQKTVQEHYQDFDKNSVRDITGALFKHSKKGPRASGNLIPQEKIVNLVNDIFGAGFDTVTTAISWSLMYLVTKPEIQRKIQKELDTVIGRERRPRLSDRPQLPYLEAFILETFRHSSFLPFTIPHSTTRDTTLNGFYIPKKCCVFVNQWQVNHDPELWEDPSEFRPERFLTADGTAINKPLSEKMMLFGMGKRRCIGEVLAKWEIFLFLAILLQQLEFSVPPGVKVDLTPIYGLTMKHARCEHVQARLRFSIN
Nature of the series: Cytochrome P450 isoenzyme inhibition, CYP1A2. It is filed as in vitro ADME. Conditions: human liver microsomes; read-out: CYP enzyme inhibition (IC50) 1A2. The source says: Experimental objective: To determine the inhibitory effect of the test compound on the activity of human liver microsomal cytochrome P450 isoenzymes (CYP1A2, CYP2C9, CYP2C19, CYP2D6 and CYP3A4; Corning Co., Ltd.). […]

Series [2] is described as follows: Metabolic stability in liver microsome (SD rat). It is filed as in vitro ADME, SD rats. The protocol:
Objective: To determine the metabolic stability of test compounds in the liver microsomes of humans, CD-1 5 mice and SD rats (Corning Co., Ltd., Miaotong Biological Technology Co., Ltd., Miaotong Biological Technology Co., Ltd.).
Procedures: Firstly, eight 96-well plates were prepared, and named T0, T5, T10, T20, T30, T60, NCF60 and BLANK; except for BLANK (added with buffer at 10 μL/well), the plates were added with the solution of compounds at 10 μL/well. Prepared microsomes were added to the 7 plates (80 μL/well), except for the T0 10 plate. The NCF60 plate was added with the buffer at 10 μL/well, and incubated in a 37° C. water bath, and timing was started:
Prepared NADPH cofactor working solution was aliquoted into a 96-well shallow-well plate serving as a loading slot. Each plates was added with the solution to at 10 μL/well by a 96-channel pipette and incubated in a 37° C. water bath to start the reaction:
At each time point, termination solution (cold acetonitrile containing 100 ng/mL Tolbutamide and 100 ng/mL Labetalol as internal standard) was added at 300 μL/well to stop the reaction, and the mixture was mixed well; the mixture was centrifuged at 4000 rpm for 20 minutes to precipitate the protein; the supernatant was transferred at 100 μL/well to a new 96-well plate containing 300 μL/well of HPLC water with a 96-channel pipette, and the mixture was mixed well. […]
Background: Liver microsomes are vesicles of endoplasmic reticulum, rich in cytochrome P450 enzymes.

For `CC/C(=C(/c1ccc(OCCNC/C=C/C(=O)N(C)C)nc1)c1[nH]c2ccccc2c1Cl)c1ccccc1` [Compound 3 monohydrochloride], the IC50 in series [1] was 45.1 µM. Also, the “Stability in liver microsomes” value in series [2] worked out at 35.

The IC50 is the concentration needed to halve the response being measured.
